Measurements reported in the NIST ThermoML archive (doi:10.1016/j.jct.2017.03.006).

Test: xn = mol fraction of the nth substance listed
Conditions: 313.15 K, Liquid; for viscosity: Concentric cylinders viscometry; for mass density: Vibrating tube method

Cc1ccc(C)c(C)c1 [1,2,4-trimethylbenzene] + CCC(C)O
Conditions | mass density [kg/m3] | viscosity [mPa·s]
100 kPa, x2 = 0 | 859 | –
100 kPa, x2 = 0.1 | 852.6 | –
100 kPa, x2 = 0.1989 | 846.6 | –
100 kPa, x2 = 0.3011 | 840.2 | –
100 kPa, x2 = 0.4002 | 834 | –
100 kPa, x2 = 0.5001 | 827.5 | –
100 kPa, x2 = 0.5298 | – | 0.773
100 kPa, x2 = 0.5997 | 820.6 | –
100 kPa, x2 = 0.6001 | – | 0.84
100 kPa, x2 = 0.6999 | 813.4 | –
100 kPa, x2 = 0.7001 | – | 0.94
100 kPa, x2 = 0.7997 | – | 1.09
100 kPa, x2 = 0.7999 | 806 | –
100 kPa, x2 = 0.9 | 797.9 | –
100 kPa, x2 = 0.9001 | – | 1.35
1000 kPa, x2 = 0 | 859.7 | –
1000 kPa, x2 = 0.1 | 853.3 | –
1000 kPa, x2 = 0.1989 | 847.2 | –
1000 kPa, x2 = 0.3011 | 840.9 | –
1000 kPa, x2 = 0.4002 | 834.7 | –
1000 kPa, x2 = 0.5001 | 828.2 | –
1000 kPa, x2 = 0.5997 | 821.3 | –
1000 kPa, x2 = 0.6999 | 814.2 | –
1000 kPa, x2 = 0.7999 | 806.7 | –
1000 kPa, x2 = 0.9 | 798.7 | –
2000 kPa, x2 = 0 | 860.4 | –
2000 kPa, x2 = 0.1 | 854.1 | –
2000 kPa, x2 = 0.1989 | 848 | –
2000 kPa, x2 = 0.3011 | 841.7 | –
2000 kPa, x2 = 0.4002 | 835.6 | –
2000 kPa, x2 = 0.5001 | 829.1 | –
2000 kPa, x2 = 0.5997 | 822.2 | –
2000 kPa, x2 = 0.6999 | 815 | –
2000 kPa, x2 = 0.7999 | 807.6 | –
2000 kPa, x2 = 0.9 | 799.6 | –
5000 kPa, x2 = 0 | 862.6 | –
5000 kPa, x2 = 0.1 | 856.3 | –
5000 kPa, x2 = 0.1989 | 850.3 | –
5000 kPa, x2 = 0.3011 | 844.1 | –
5000 kPa, x2 = 0.4002 | 838 | –
5000 kPa, x2 = 0.5001 | 831.5 | –
5000 kPa, x2 = 0.5997 | 824.6 | –
5000 kPa, x2 = 0.6999 | 817.5 | –
5000 kPa, x2 = 0.7999 | 810.1 | –
5000 kPa, x2 = 0.9 | 802.1 | –
10000 kPa, x2 = 0 | 866 | –
10000 kPa, x2 = 0.1 | 860 | –
10000 kPa, x2 = 0.1989 | 854.1 | –
10000 kPa, x2 = 0.3011 | 847.9 | –
10000 kPa, x2 = 0.4002 | 841.7 | –
10000 kPa, x2 = 0.5001 | 835.4 | –
10000 kPa, x2 = 0.5997 | 828.5 | –
10000 kPa, x2 = 0.6999 | 821.5 | –
10000 kPa, x2 = 0.7999 | 814.2 | –
10000 kPa, x2 = 0.9 | 806.2 | –
15000 kPa, x2 = 0 | 869.3 | –
15000 kPa, x2 = 0.1 | 863.5 | –
15000 kPa, x2 = 0.1989 | 857.6 | –
15000 kPa, x2 = 0.3011 | 851.5 | –
15000 kPa, x2 = 0.4002 | 845.4 | –
15000 kPa, x2 = 0.5001 | 839.1 | –
15000 kPa, x2 = 0.5997 | 832.3 | –
15000 kPa, x2 = 0.6999 | 825.3 | –
15000 kPa, x2 = 0.7999 | 818 | –
15000 kPa, x2 = 0.9 | 810.1 | –
20000 kPa, x2 = 0 | 872.6 | –
20000 kPa, x2 = 0.1 | 866.8 | –
20000 kPa, x2 = 0.1989 | 861 | –
20000 kPa, x2 = 0.3011 | 854.9 | –
20000 kPa, x2 = 0.4002 | 848.9 | –
20000 kPa, x2 = 0.5001 | 842.6 | –
20000 kPa, x2 = 0.5997 | 835.9 | –
20000 kPa, x2 = 0.6999 | 829 | –
20000 kPa, x2 = 0.7999 | 821.7 | –
20000 kPa, x2 = 0.9 | 813.8 | –
30000 kPa, x2 = 0 | 878.7 | –
30000 kPa, x2 = 0.1 | 873.2 | –
30000 kPa, x2 = 0.1989 | 867.5 | –
30000 kPa, x2 = 0.3011 | 861.5 | –
30000 kPa, x2 = 0.4002 | 855.6 | –
30000 kPa, x2 = 0.5001 | 849.4 | –
30000 kPa, x2 = 0.5997 | 842.8 | –
30000 kPa, x2 = 0.6999 | 835.8 | –
30000 kPa, x2 = 0.7999 | 828.6 | –
30000 kPa, x2 = 0.9 | 820.8 | –
40000 kPa, x2 = 0 | 884.5 | –
40000 kPa, x2 = 0.1 | 879.2 | –
40000 kPa, x2 = 0.1989 | 873.5 | –
40000 kPa, x2 = 0.3011 | 867.6 | –
40000 kPa, x2 = 0.4002 | 861.7 | –
40000 kPa, x2 = 0.5001 | 855.8 | –
40000 kPa, x2 = 0.5997 | 849 | –
40000 kPa, x2 = 0.6999 | 842.2 | –
40000 kPa, x2 = 0.7999 | 835 | –
40000 kPa, x2 = 0.9 | 827.3 | –
50000 kPa, x2 = 0 | 889.9 | –
50000 kPa, x2 = 0.1 | 884.8 | –
50000 kPa, x2 = 0.1989 | 879.3 | –
50000 kPa, x2 = 0.3011 | 873.4 | –
50000 kPa, x2 = 0.4002 | 867.5 | –
50000 kPa, x2 = 0.5001 | 861.6 | –
